Numbers after ± are expanded uncertainties.
Conditions: Liquid, Vibrating tube method

CCn1cc[n+](C)c1.O=S(=O)([N-]S(=O)(=O)C(F)(F)F)C(F)(F)F
Conditions	mass density [kg/m3]
283.15 K, 101.33 kPa	1533.48 ± 0.71
283.19 K, 1750 kPa	1533.9 ± 2.5
283.19 K, 5136 kPa	1536.34 ± 2.6
283.19 K, 49993 kPa	1565.54 ± 3
283.19 K, 60272 kPa	1571.51 ± 3.1
283.19 K, 69996 kPa	1577 ± 3.3
283.19 K, 80287 kPa	1582.65 ± 3.5
283.19 K, 89994 kPa	1587.84 ± 3.6
283.2 K, 10046 kPa	1539.78 ± 2.6
283.2 K, 29957 kPa	1553.14 ± 2.8
283.2 K, 40033 kPa	1559.47 ± 2.9
283.21 K, 20030 kPa	1546.57 ± 2.7
283.21 K, 100034 kPa	1593.02 ± 3.8
293.14 K, 99755 kPa	1584.89 ± 3.7
293.15 K, 101.33 kPa	1523.37 ± 0.7
293.15 K, 10202 kPa	1530.8 ± 2.6
293.15 K, 89934 kPa	1579.84 ± 3.6
293.16 K, 20787 kPa	1538.14 ± 2.7
293.16 K, 59685 kPa	1562.92 ± 3.1
293.16 K, 69993 kPa	1568.91 ± 3.3
293.17 K, 1027 kPa	1524.24 ± 2.5
293.17 K, 4981 kPa	1527.1 ± 2.5
293.17 K, 29994 kPa	1544.31 ± 2.8
293.17 K, 49993 kPa	1557.07 ± 3
293.17 K, 79912 kPa	1574.47 ± 3.4
293.19 K, 39872 kPa	1550.73 ± 2.9
298.12 K, 19701 kPa	1532.45 ± 2.6
298.12 K, 29779 kPa	1539.35 ± 2.8
298.13 K, 39926 kPa	1546.05 ± 2.9
298.14 K, 1156 kPa	1519.1 ± 2.5
298.15 K, 101.33 kPa	1518.34 ± 0.69
298.15 K, 49997 kPa	1552.45 ± 3
298.17 K, 5194 kPa	1522.08 ± 2.5
298.18 K, 90001 kPa	1575.41 ± 3.6
298.18 K, 99950 kPa	1580.52 ± 3.7
298.19 K, 10066 kPa	1525.62 ± 2.6
298.19 K, 69997 kPa	1564.42 ± 3.2
298.19 K, 79938 kPa	1570 ± 3.4
298.2 K, 59613 kPa	1558.32 ± 3.1
313.15 K, 101.33 kPa	1503.33 ± 0.68
313.15 K, 10156 kPa	1510.84 ± 2.5
313.15 K, 29996 kPa	1525.09 ± 2.7
313.15 K, 39897 kPa	1531.84 ± 2.8
313.15 K, 49994 kPa	1538.48 ± 2.9
313.15 K, 60124 kPa	1544.89 ± 3.1
313.15 K, 69993 kPa	1550.88 ± 3.2
313.16 K, 1963 kPa	1504.67 ± 2.5
313.16 K, 19902 kPa	1517.96 ± 2.6
313.16 K, 80342 kPa	1556.93 ± 3.4
313.16 K, 89994 kPa	1562.32 ± 3.5
313.17 K, 5147 kPa	1507.08 ± 2.5
313.17 K, 100087 kPa	1567.72 ± 3.7
333.13 K, 80064 kPa	1539.77 ± 3.3
333.13 K, 89994 kPa	1545.53 ± 3.4
333.14 K, 69997 kPa	1533.66 ± 3.1
333.14 K, 99911 kPa	1551 ± 3.6
333.15 K, 101.33 kPa	1483.53 ± 0.66
333.15 K, 60111 kPa	1527.39 ± 3
333.16 K, 49997 kPa	1520.69 ± 2.9
333.17 K, 2359 kPa	1485.34 ± 2.5
333.17 K, 5331 kPa	1487.73 ± 2.5
333.17 K, 40159 kPa	1513.9 ± 2.8
333.18 K, 30001 kPa	1506.61 ± 2.7
333.19 K, 9791 kPa	1491.26 ± 2.5
333.19 K, 18829 kPa	1498.27 ± 2.6
353.15 K, 101.33 kPa	1463.97 ± 0.64
353.18 K, 2168 kPa	1465.71 ± 2.4
353.18 K, 5223 kPa	1468.32 ± 2.4
353.18 K, 69993 kPa	1516.73 ± 3.1
353.18 K, 80056 kPa	1523.09 ± 3.2
353.18 K, 90001 kPa	1529.06 ± 3.4
353.19 K, 9673 kPa	1472.06 ± 2.5
353.19 K, 20093 kPa	1480.58 ± 2.5
353.19 K, 29997 kPa	1488.37 ± 2.6
353.19 K, 39951 kPa	1495.89 ± 2.7
353.19 K, 49979 kPa	1503.15 ± 2.8
353.19 K, 60184 kPa	1510.23 ± 3
353.19 K, 99944 kPa	1534.73 ± 3.5
363.15 K, 101.33 kPa	1454.28 ± 0.63
373.12 K, 724 kPa	1445.01 ± 2.4
373.14 K, 4935 kPa	1448.84 ± 2.4
373.14 K, 60448 kPa	1493.21 ± 2.9
373.14 K, 69979 kPa	1499.69 ± 3
373.14 K, 79868 kPa	1506.16 ± 3.2
373.14 K, 89963 kPa	1512.49 ± 3.3
373.14 K, 99920 kPa	1518.52 ± 3.5
373.16 K, 30001 kPa	1470.33 ± 2.6
373.16 K, 39858 kPa	1478.08 ± 2.7
373.16 K, 49997 kPa	1485.67 ± 2.8
373.17 K, 10147 kPa	1453.42 ± 2.4
373.18 K, 19879 kPa	1461.85 ± 2.5

Reference: the NIST ThermoML archive (doi:10.1021/je100945u)
